Measurements reported in US7667044B2, “Compounds for the treatment of neurological disorders” (Probiodrug AG, priority 2003, dated 2010).

Assays:
[1] = target: T1, Recombinant human prolyl oligopeptidase (Homo sapiens, UniProt P48147); test: Determination of IC50- and Ki-values of PEP-inhibitors, chromogenic substrate Cbz-Gly-L-Pro-pNA; format: biochemical; details: for Ki: 4 substrate and 7 inhibitor concentrations, competitive inhibition fit, pH 7.6, 30° C.; for IC50: substrate 0.15 mM Cbz-Gly-L-Pro-pNA, HEPES buffer pH 7.6, 30° C.
T1 construct: made in house; host or cells: E. coli
T1 sequence (P48147 1-710): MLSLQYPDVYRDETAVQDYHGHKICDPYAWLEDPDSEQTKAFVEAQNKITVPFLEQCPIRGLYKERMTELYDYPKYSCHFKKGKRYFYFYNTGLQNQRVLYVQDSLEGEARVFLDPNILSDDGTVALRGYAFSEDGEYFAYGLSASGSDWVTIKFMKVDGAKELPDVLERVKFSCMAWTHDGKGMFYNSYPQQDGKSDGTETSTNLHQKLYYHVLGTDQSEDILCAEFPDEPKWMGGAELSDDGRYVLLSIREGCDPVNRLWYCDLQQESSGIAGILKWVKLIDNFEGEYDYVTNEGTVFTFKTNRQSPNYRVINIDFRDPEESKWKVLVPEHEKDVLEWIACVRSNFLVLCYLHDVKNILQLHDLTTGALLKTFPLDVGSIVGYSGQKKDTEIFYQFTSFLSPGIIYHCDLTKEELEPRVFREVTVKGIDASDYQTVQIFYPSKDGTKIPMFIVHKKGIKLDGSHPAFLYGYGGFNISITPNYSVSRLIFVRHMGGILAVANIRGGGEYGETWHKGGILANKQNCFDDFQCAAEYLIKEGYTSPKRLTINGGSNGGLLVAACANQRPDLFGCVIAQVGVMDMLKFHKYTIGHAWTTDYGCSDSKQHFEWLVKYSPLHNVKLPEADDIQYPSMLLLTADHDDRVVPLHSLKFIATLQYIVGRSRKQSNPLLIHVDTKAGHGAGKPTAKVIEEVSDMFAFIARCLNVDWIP
Method: Recombinant human prolyl oligopeptidase was used for measurement. Recombinant expression was performed in E. coli under standard conditions as described elsewhere in the state of the art.
For activity measurements the chromogenic substrate Cbz-Gly-L-Pro-pNA was used in HEPES buffer pH 7.6 containing 50 mM HEPES, 200 mM NaCl, 1 mM EDTA, 1 mM DTT, 0.006% Brij35. Measurements were carried out at 30° C. Release of pNA were monitored continuously at 405 nm.
IC50 values were calculated using non-linear regression to a 4-parameter equation (Prism 4.0, GraphPad).
Calculations were performed by multiple non-linear regression analysis to the equation for competitive inhibition using GraFit 5.0 Software (Erithacus Software).

human glial U-343 cells = test: IL-6 ELISA, basal secretion of IL-6 into conditioned medium; format: cell-based; details: inhibitor 20 μM, 24 hours, serum-free medium, untreated = 100%, read-out: Extracellular IL-6 concentration, % of untreated cells
Method: To analyze basal secretion of IL-6, human glial U-343 cells were cultured in 6 well plates (1.5×10^6 cells/well, Greiner) and treated with specific PEP inhibitors as indicated (20 μM each) for 24 hours in serum-free D-MEM medium (invitrogen). Aliquots of 40 μl conditioned medium were used to quantify the amount of secreted IL-6 by an human-specific IL-6 ELISA (Biosource) following the manufacturer's instructions. All data were obtained in quadruplicate. For the calculation of the IL-6 concentration in the cell culture medium after PEP-inhibitor treatment, the basal IL-6 concentration of the cell culture medium of untreated cell samples was set to 100%. The results of the measurement of the IL-6 concentration with PEP-inhibitor treated cells are presented as % of the untreated cell samples.

[2] = test system: human neuroblastoma SH-SY5Y cells; test: β-Amyloid ELISA, secreted β-amyloid peptides in conditioned medium; format: cell-based; details: Aβ 1-42 (FIG. 2), inhibitor 20 μM, 24 hours, untreated = 100%, read-out: Extracellular Aβ-concentration, % of control
Method: The human glioma cell line, U-343 and the human neuroblastoma cell line, SH-SY5Y were maintained in Dulbecco's modified Eagle's medium (DMEM) containing 10% fetal bovine serum (Gibco BRL, Karlsruhe, Germany) and incubated at 37° C. in a 5% CO2 atmosphere. Culture media contained in general 60 μg/ml gentamycin (Gibco BRL, Karlsruhe, Germany).
To quantify intracellular and extracellular concentrations of β-amyloid peptides, 1-40 and 142, U-343 and SH-SY5Y cells were cultured in 6 well plates (1.5×10^6 cells/well) and treated with specific PEP inhibitors (20 μM each) for 24 hours. For quantitation of secreted β-amyloid peptides the conditioned medium was collected and concentrated by lyophylisation. Likewise, after determination of the cell numbers/well (casy cell counter I, Schärfe System, Reutlingen, Germany), cells were lyzed with cell extraction buffer (Biosource, Solingen, Germany) according to the manufacturer's protocol. The protein concentration was determined by the method of Bradford (1976). Aliquots of 100 μl were used to quantify β-amyloid peptides 1-40 and 1-42 in quadruplicate by ELISA, (IBL, Hamburg, Germany) following the manufacturer's instructions. All obtained intracellular and extracellular concentrations were normalized to cell numbers and protein concentration, respectively.
For the calculation of the concentration of β-amyloid peptides 1-40 and 1-42 in the cell culture medium after PEP-inhibitor treatment, the basal concentration of β-amyloid peptides 1-40 and 1-42 in the cell culture medium of untreated cell samples was set to 100%. The results of the measurement of the concentration of β-amyloid peptides 1-40 and 1-42 with PEP-inhibitor treated cells are presented as % of the untreated cell samples.

Ki [1] | IC50 [1] | Structure (SMILES) | activity at 20 µM (human glial U-343 cells) | activity at 20 µM [2]
2.6 nM | 4.3 nM | C[C@H](NC(=O)OCc1ccccc1)C(=O)N1CCC[C@H]1C(=O)c1nccs1 [Example 10, 2-[Cbz-L-Ala-L-Pro]Thiazole] | 66% | 157%
8.2 nM | 9.7 nM | C=CCOC(=O)N[C@@H](Cc1ccccc1)C(=O)N1CCC[C@H]1C(=O)c1nc2ccccc2s1 [Example 7, 2-[Aloc-L-Phe-L-Pro]Benzothiazole] | 17% | 528%
6 nM | 29 nM | CC(C)(C)OC(=O)N[C@@H](Cc1ccccc1)C(=O)N1CCC[C@H]1C(=O)c1nc2ccccc2s1 [Example 9, 2-[Boc-L-Phe-L-Pro]Benzothiazole] | 33.1% | 368%
0.038 nM | 2 nM | NCCCC[C@H](NC(=O)OCc1ccccc1)C(=O)N1CCC[C@H]1C(=O)c1nc2ccccc2s1 [Example 8, 2-[Cbz-L-Lys-L-Pro]Benzothiazole] | 160% | 87.5%
2.9 nM | 7600 nM | O=C(N[C@@H](Cc1ccccc1)C(=O)N1CCC[C@H]1C(=O)c1ccc[nH]1)OCc1ccccc1 [Example 11] | 52.1% | 340%

More lines, now with the values behind:

Structure (SMILES) | Ki [1] | IC50 [1] | activity at 20 µM (human glial U-343 cells) | activity at 20 µM [2]
O=C(N[C@H](Cc1ccccc1)C(=O)N1CCCC1C(=O)c1nc2ccccc2s1)OCc1ccccc1 (stereo partly drawn) [Example 1, 2-[Cbz-L-Phe-L-Pro]Benzothiazole] | 0.057 nM | 6 nM | 14.3% | 447%
O=C(N[C@@H](Cc1ccccc1)C(=O)N1CCC[C@H]1C(=O)c1nccs1)OCc1ccccc1 [Example 4, 2-[Cbz-L-Phe-L-Pro]Thiazole] | 6.8 nM | 15 nM | 14.6% | 519%
C[C@H](NC(=O)[C@@H](Cc1ccccc1)NC(=O)OCc1ccccc1)C(=O)c1nc2ccccc2s1 [Example 3, 2-[Cbz-L-Phe-L-Ala]Benzothiazole] |  | 1400 nM | 35.2% | 546%
N=C(N)NCCC[C@H](NC(=O)OCc1ccccc1)C(=O)N1CCC[C@H]1C(=O)c1nc2ccccc2s1 [Example 5, 2-[Cbz-L-Arg-L-Pro]Benzothiazole] | 3.2 nM | 5.4 nM | 109% | 94%
O=C(O)C[C@H](NC(=O)OCc1ccccc1)C(=O)N1CCC[C@H]1C(=O)c1nc2ccccc2s1 [Example 6, 2-[Cbz-L-Asp-L-Pro]Benzothiazole] | 12 nM | 17 nM | 58% | 96.2%
C[C@@H](NC(=O)OCc1ccccc1)C(=O)N1CCC[C@H]1C(=O)c1nc2ccccc2s1 [Example 2, 2-[Cbz-L-Ala-L-Pro]Benzothiazole] | 0.033 nM | 0.12 nM | 20.1% | 123%
